Values of other authors in US6740655B2, “Pyrimidine carboxamides useful as inhibitors of PDE4 isozymes” (Pfizer Inc, priority 2000, dated 2004).
Entries after “also recorded” stand apart in the source; their conditions may differ. Read-outs that look alike come from different tables or passages of the source.

Key:
[1] = system: antigen-induced eosinophilia; details: rat
[2] = system: PDE4 from U937 cells
[3] = doses up to 400 mg, 54 subjects
[4] = rat
[5] = system: psoriatic lesions
[6] = system: lipopolysaccharide-induced mesenteric blood flow fall
[7] = system: lipopolysaccharide-induced bowel erythrocyte extravasation; details: rats; b385: pretreatment i.p. 3×, pentoxifylline 5 to 50, rolipram 10 to 30, debufylline 0.1 to 3 mg/kg
[8] = system: tumor cells; details: at micromolar concentrations
[9] = system: pulmonary artery rings
[10] = system: late reactions to inhaled allergen; details: b18: 9.5 days oral, 15 and 30 mg
[11] = system: guinea-pig trachea
[12] = system: allergic rhinitis; details: in vivo
[13] = system: T-cell mediated hepatic failure; details: mouse, in vivo
[14] = system: high-affinity rolipram binding site (Sr)
[15] = system: inflammatory parameters, atopic dermatitis
[16] = in vivo

For `COc1cc2c3c(c1)C(c1ccccc1)=N[C@@H](NC(=O)c1cc4ccccc4cn1)C(=O)N3CC2` [Cl-1018], the “inhibition of antigen-induced eosinophilia” value [1] is listed as “active”, the “oral potency ED50” value ([1]; oral) is listed as 5 mg/kg and the IC50 ([2]; read-out: IC50 PDE4 in U937 cells) is listed as 1100 nM. The adverse events [3] was “no adverse events were reported” and the oral bioavailability [4] was 57%.

For `COc1ccc(CC2CNC(=O)N2)cc1OC1CCCC1` (stereo not drawn) [Ro 20-1724], the “adverse systemic or cutaneous effects” value ([5]; in vivo) is given as “without adverse systemic or cutaneous effects” and the “effect on psoriatic lesions” value ([5]; versus vehicle) is given as “improve psoriatic lesions”.

For `CCCCn1c(=O)c2c(ncn2CC(C)=O)n(CCCC)c1=O` [denbufylline], the “intestinal hypoperfusion in dogs” value [6] is listed as “attenuated” and the “lipopolysaccharide-induced bowel erythrocyte extravasation” value [7] is listed as “attenuated”.

For `Clc1nc2c(N3CCCC3)nc(N3CCNCC3)nc2nc1NCc1ccccc1` [Formula (0.0.55)], the “growth of tumor cells” value [8] is given as “inhibit the growth of tumor cells”.

In the case of `COC(=O)c1ccc2c(=O)n(C3NC(c4ccccc4)c4cc(N)cc5c4N(CC5)C3=O)cnc2c1` (stereo not drawn) [Formula (0.0.53)], the IC50 ([2]; read-out: IC50 against the PDE4 from U937 cells) is listed as 3 nM.

For `Cc1[nH]c(=O)c(C#N)cc1-c1ccncc1` [milrinone], the “relaxant activities of isoproterenol and forskolin” value [9] is given as “The same effect has been observed”.

For `COc1ccc([C@H](Cc2ccncc2)c2ccccc2)cc1OC1CCCC1` [CDP840], the “late reactions / late-phase response” value [10] is given as “suppression of late reactions; also recorded: significant inhibition of late-phase response”.

In the case of `CC1CC1c1nc(NC2CC2)nc(N2CCOCC2)n1` (stereo not drawn) [Formula (0.0.57)], the “relaxant activity in guinea-pig trachea model” value [11] is listed as “potent relaxant agents”.

For `O=S1(=O)CCN(c2nc(NC3CC3)nc(C3CC3)n2)C1` [Formula (0.0.56)], the “relaxant activity in guinea-pig trachea model” value [11] is given as “potent relaxant agents”.

In the case of `O=C(Nc1c(Cl)cncc1Cl)C(=O)c1cn(Cc2ccc(F)cc2)c2ccc(O)cc12` [AWD-12,281], the “activity in rat model of allergic rhinitis” value [12] is given as “active”.

For `COc1ccc(C2CNC(=O)C2)cc1OC1CCCC1` (stereo not drawn) [rolipram], the “concanavalin A-induced IL4 release” value [13] is given as “suppress”, the “intestinal hypoperfusion in dogs” value [6] is given as “attenuated” and the “lipopolysaccharide-induced bowel erythrocyte extravasation” value [7] is given as “attenuated”.

For `O=C(NC1NC(c2ccccc2)c2cccc3c2N(CC3)C1=O)c1ccncc1` (stereo not drawn) [PD-168787], the “inhibition of antigen-induced eosinophilia” value [1] is listed as “activity”.

In the case of `COc1ccc(C2CNC(=O)NC2)cc1OC1CC2CCC1C2` (stereo not drawn) [CP-80,633], the “affinity at the Sr” value [14] is listed as “high affinity”, the adverse effects ([15]; human, in vivo) is listed as “no adverse effects” and the inflammatory parameters ([15]; topical, bilaterally over eight days, twenty patients) is listed as “effectively inhibit all of the inflammatory parameters tested”. For the same compound, the “emesis / nausea and vomiting” value [16] was “elicit emesis”.
